Publication PMC4277420, “Assessment of [^125I]WYE-230949 as a Novel Histamine H3 Receptor Radiopharmaceutical” (PLoS ONE, 2014)

Assays:
[1] = In vivo microSPECT imaging of brain uptake; set-up: species or system rat
Procedure: (§1) Animal experiments were conducted under the UK Animals (Scientific Procedures) Act 1986. This work was approved by the ethical review committee at the University of Glasgow (PPL: 60/3436) prior to the start of study. Naïve male Sprague-Dawley rats (Harlan, UK), weighing 217 to 352 g were either conscious or anaesthetised (2.5–3% isoflurane via a tracheostomy and artificial ventilation in 70/30% N2O/O2) for the duration of the experiment. Anaesthetised rats had their respiration and temperature monitored throughout. [^125I]WYE-230949 was administered via a femoral vein cannula to anaesthetised rats or via the lateral tail vein to conscious rats. The injected dose for each rat was calculated by measuring the syringe in a dose calibrator before and after [^125I]WYE-230949 administration. The radioactive and radiochemical amounts administered to individual rats ranged from 12.6 to 24.5 MBq and 0.32 to 0.70 µg/kg respectively in all in vivo studies.
MicroSPECT imaging was performed in order to image the uptake of [^125I]WYE-230949 in the brain over time. SPECT scanning was performed using a MollyQ 50 microSPECT scanner (Neurophysics Corp., Shirley, MA, U.S.A.). Rats were anaesthetised for the duration of scan (2–3% isoflurane in 70/30% N2O/O2) and physiological parameters were maintained as described previously. The scanning protocol was designed to ensure that a forebrain slice encompassing structures dense in H3 bindings sites including cortex, striatum, hippocampus and thalamus was captured; the first slice being 14.4 mm caudal to the eyes, approximately at the level of the caudate nucleus. Scanning was commenced 12 min prior to intravenous injection of [^125I]WYE-230949 via the tail vein. Ten sequential coronal slices (400 µm/slice) were collected over a total scanning distance of 4 mm with a scanning time of 12 min per repetition. […] The mean intensity of the ROI in each slice of the SPECT images was measured by plotting a z-axis profile. […] Finally these values were expressed as % of injected dose per ml of tissue and plotted against time.

Ex vivo biodistribution = type: in vivo, rat; details: for brain uptake: i.v.
Procedure: as §1
Ex vivo biodistribution studies were performed in both conscious and anaesthetised rats in order to investigate the effect of anaesthesia on [^125I]WYE-230949 uptake. At 30 or 120 min following [^125I]WYE-230949 administration rats were killed by cervical dislocation. These time points were chosen based on the biological half life of [^125I]WYE-230949 determined from microSPECT imaging studies. Serial arterial blood sampling via a femoral artery cannula was performed in anaesthetised rats only. Blood was collected into heparin-coated tubes for analysis of plasma and into EDTA coated tubes for analysis of whole blood. At either 30 or 120 min following [^125I]WYE-230949 administration rats were killed by cervical dislocation and the brain, heart, lungs, kidneys and liver dissected. Samples were counted on a Gamma Scintillation Counter (Packard Cobra II D5010, UK) and counts per minute (cpm) converted to kBq using a standard curve. Radioactivity was corrected for decay of ^125I and expressed per sample weight and as a percentage of injected dose (%ID/g tissue).

[2] = Ex vivo HPLC analysis of rat plasma and brain samples (% parent compound); type: in vivo
Procedure: as §1
After intravenous injection of [^125I]WYE-230949 blood samples were obtained by terminal cardiac puncture from anaesthetised rats or via the lateral tail vein from conscious rats at either 30 or 120 min. Rats were then immediately killed by cervical dislocation and the brain removed. Plasma was separated from whole blood by centrifugation and the protein precipitated by combining 400 µl of plasma with 400 µl of ice-cold acetonitrile. A sample (200 µl) of the supernatant was made up to 1 ml with distilled water and injected onto the HPLC column. The brain was homogenised in 2 ml saline, protein precipitated by addition of 2 ml of ice-cold acetonitrile. Samples were then centrifuged (1300 rpm; 200×g) and the supernatant added to 1 ml acetonitrile before being centrifuged again (1300 rpm; 200×g). The acetonitrile was evaporated under a stream of argon gas and the remaining 1 ml injected onto the HPLC column. Analysis of the brain and plasma metabolite samples was performed using the analytical HPLC methodology described. The % parent compound present was calculated.

Q: What does the source list for O=C(c1ccc(Cn2cnc3cccc([125I])c32)cc1)N1CC[C@H](N2CCCC2)C1 [[^125I]WYE-230949]?
A: maximum brain uptake (microSPECT) ([1]; first 12 min following i.v. injection, anaesthetised rats, n = 5): 0.14±0.01 % ID/ml; maximum brain uptake (SPECT), as restated in discussion ([1]; first 12 min post injection, rats): 0.14 %ID/g; half-life in rat brain ([1]; microSPECT time activity curve): 45.4 min; brain uptake (Ex vivo biodistribution; 30 min, anaesthetised rats): 0.11 %ID/g; brain uptake (Ex vivo biodistribution; 30 min, conscious rats): 0.06±0.01 %ID/g; brain uptake (Ex vivo biodistribution; 120 min, anaesthetised rats): 0.06±0.01 %ID/g; brain uptake (Ex vivo biodistribution; 120 min, conscious rats): 0.03±0.003 %ID/g; peak radioactivity in plasma (Ex vivo biodistribution; anaesthetised rats, n = 6): 4.04±1.14 %ID/g of tissue; peak radioactivity in whole blood (Ex vivo biodistribution; anaesthetised rats, n = 6): 3.14±0.26 %ID/g of tissue; time of peak radioactivity in plasma (Ex vivo biodistribution; anaesthetised rats, n = 6): 0.38 ± 0.02 min; time of peak radioactivity in whole blood (Ex vivo biodistribution; anaesthetised rats, n = 6): 0.50 ± 0.03 min; parent compound remaining in plasma ([2]; 30 minutes after injection): less than 38%; Percentage of parent compound detected ([2]; Brain, 30 min, anaesthetised): 27±4 (n = 3) %; Percentage of parent compound detected ([2]; Brain, 30 min, conscious): 46±2 (n = 4) %; Percentage of parent compound detected ([2]; Brain, 120 min, anaesthetised): 32±5 (n = 3) %; Percentage of parent compound detected ([2]; Brain, 120 min, conscious): 36±6 (n = 4) %; Percentage of parent compound detected ([2]; Plasma, 30 min, anaesthetised): 14±2 (n = 4) %; Percentage of parent compound detected ([2]; Plasma, 30 min, conscious): 38±9 (n = 6) %; Percentage of parent compound detected ([2]; Plasma, 120 min, anaesthetised): 3±3 (n = 4) %; Percentage of parent compound detected ([2]; Plasma, 120 min, conscious): 8±5 (n = 4) %; parent compound remaining in plasma ([2]; after 120 min): less than 8%
